From ChEMBL document CHEMBL4130502, “Discovery of thienopyrrolotriazine derivatives to protect mitochondrial function against Aβ-induced neurotoxicity” (Eur J Med Chem, 2017)

Tests used:
[1] = molecular target: Translocator protein (Mus musculus) (UniProt P50637); assay: Inhibition of TSPO in mouse HT22 cells assessed as reduction in amyloid beta (1 to 42) (unknown origin) induced mitochondrial permeability transition pore formation by measuring increase in green to red fluorescence ratio at 5 uM pretreated for 10 mins followed by amyloid beta (1 to 42) stimulation and measured at 1 hr interval for 3 hrs by JC-1 dye based fluorescence assay relative to control; type: cell-based; parameters: scale not given: the % may be the effect or the level left
Chain of Translocator protein (Mus musculus) (P50637 whole entry, looked up): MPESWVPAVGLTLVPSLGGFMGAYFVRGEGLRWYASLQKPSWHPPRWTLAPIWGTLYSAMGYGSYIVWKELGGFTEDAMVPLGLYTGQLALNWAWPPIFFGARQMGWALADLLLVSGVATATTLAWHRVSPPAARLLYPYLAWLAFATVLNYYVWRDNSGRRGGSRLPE

[2] = molecular target: Translocator protein (Mus musculus) (UniProt P50637); assay: Inhibition of TSPO in mouse HT22 cells assessed as recovery of ATP production at 5 uM preincubated for 10 mins followed by amyloid beta (1 to 42) stimulation and measured after 7 hrs by luciferase based assay relative to control; type: cell-based; parameters: scale not given: the % may be the effect or the level left
[3] = Cytotoxicity against mouse HT22 cells as cell viability at 5 uM after 24 hrs by MTT assay relative to control; type: cell-based, HT-22; conditions: read-out: Activity
CYP1A2 = molecular target: T1, CYP1A2 (Homo sapiens, UniProt P05177); assay: Inhibition of human CYP1A2 assessed as remaining enzyme activity at 10 uM preincubated for 5 mins followed by Vivid CYP substrate addition measured after 20 mins by fluorescence assay relative to control; type: ADME; conditions: probe Vivid CYP substrate, read-out: Activity
T1 sequence (P05177 whole entry): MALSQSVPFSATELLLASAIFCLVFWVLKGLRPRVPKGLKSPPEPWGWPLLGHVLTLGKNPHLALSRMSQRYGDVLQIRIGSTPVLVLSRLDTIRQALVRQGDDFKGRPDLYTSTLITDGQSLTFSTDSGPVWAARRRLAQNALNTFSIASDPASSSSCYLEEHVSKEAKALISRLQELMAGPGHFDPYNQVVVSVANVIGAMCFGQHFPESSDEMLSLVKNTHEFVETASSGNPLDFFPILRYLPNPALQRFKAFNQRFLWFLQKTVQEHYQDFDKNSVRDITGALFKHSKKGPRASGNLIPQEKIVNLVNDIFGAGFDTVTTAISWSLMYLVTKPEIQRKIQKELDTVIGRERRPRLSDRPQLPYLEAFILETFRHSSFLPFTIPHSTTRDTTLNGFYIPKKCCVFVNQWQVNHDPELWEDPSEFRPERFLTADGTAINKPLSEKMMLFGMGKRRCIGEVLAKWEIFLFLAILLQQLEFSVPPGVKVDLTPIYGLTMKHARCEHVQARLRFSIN

CYP2C9 = CYP2C9 (Homo sapiens, UniProt P11712); assay: Inhibition of human CYP2C9 assessed as remaining enzyme activity at 10 uM preincubated for 5 mins followed by Vivid CYP substrate addition measured after 20 mins by fluorescence assay relative to control; type: ADME; conditions: probe Vivid CYP substrate, read-out: Activity
Chain of CYP2C9 (P11712 whole entry): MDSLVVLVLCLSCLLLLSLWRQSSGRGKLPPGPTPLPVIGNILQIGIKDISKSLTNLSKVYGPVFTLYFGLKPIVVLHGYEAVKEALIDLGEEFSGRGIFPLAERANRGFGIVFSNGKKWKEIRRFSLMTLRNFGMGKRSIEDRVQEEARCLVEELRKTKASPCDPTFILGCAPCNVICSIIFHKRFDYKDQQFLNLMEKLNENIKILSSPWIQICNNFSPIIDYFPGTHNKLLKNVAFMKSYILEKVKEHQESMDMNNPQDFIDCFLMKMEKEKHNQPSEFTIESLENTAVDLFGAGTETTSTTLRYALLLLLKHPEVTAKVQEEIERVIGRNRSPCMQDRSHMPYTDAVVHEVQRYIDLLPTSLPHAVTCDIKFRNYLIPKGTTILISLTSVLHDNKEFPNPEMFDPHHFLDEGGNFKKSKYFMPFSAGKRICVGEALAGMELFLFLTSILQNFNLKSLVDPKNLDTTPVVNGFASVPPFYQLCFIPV

Translocator protein = Translocator protein (Rattus norvegicus, UniProt P16257); assay: Displacement of [3H]PK11195 from TSPO in Sprague-Dawley rat cerebral cortex membranes after 60 mins by liquid scintillation counting analysis; parameters: species or system Membrane
Chain of Translocator protein (P16257 whole entry, looked up): as the sequence (P50637 whole entry, looked up) above, with P2S, E3Q, V67I, D77E, A110V, L113M, V149M, P168T counted along it

CYP2D6 = CYP2D6 (Homo sapiens, UniProt P10635); assay: Inhibition of human CYP2D6 assessed as remaining enzyme activity at 10 uM preincubated for 5 mins followed by Vivid CYP substrate addition measured after 20 mins by fluorescence assay relative to control; type: ADME; conditions: probe Vivid CYP substrate, read-out: Activity
Chain of CYP2D6 (P10635 whole entry): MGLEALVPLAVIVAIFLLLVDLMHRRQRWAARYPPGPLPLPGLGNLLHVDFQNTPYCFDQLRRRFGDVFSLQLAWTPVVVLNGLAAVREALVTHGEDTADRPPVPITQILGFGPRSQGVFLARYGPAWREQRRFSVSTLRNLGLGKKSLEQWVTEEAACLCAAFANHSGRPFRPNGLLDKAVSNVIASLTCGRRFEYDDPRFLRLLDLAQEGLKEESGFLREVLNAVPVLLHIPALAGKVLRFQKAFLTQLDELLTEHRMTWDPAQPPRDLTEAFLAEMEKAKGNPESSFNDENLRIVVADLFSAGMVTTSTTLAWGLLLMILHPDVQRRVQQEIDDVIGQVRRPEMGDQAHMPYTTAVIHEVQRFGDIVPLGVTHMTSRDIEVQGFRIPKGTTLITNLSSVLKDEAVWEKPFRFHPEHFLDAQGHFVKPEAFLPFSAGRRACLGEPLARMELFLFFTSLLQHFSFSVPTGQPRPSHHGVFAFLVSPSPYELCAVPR

CYP3A4 = CYP3A4 (Homo sapiens, UniProt P08684); assay: Inhibition of human CYP3A4 assessed as remaining enzyme activity at 10 uM preincubated for 5 mins followed by Vivid CYP substrate addition measured after 20 mins by fluorescence assay relative to control; type: ADME; conditions: probe Vivid CYP substrate, read-out: Activity
Chain of CYP3A4 (P08684 whole entry): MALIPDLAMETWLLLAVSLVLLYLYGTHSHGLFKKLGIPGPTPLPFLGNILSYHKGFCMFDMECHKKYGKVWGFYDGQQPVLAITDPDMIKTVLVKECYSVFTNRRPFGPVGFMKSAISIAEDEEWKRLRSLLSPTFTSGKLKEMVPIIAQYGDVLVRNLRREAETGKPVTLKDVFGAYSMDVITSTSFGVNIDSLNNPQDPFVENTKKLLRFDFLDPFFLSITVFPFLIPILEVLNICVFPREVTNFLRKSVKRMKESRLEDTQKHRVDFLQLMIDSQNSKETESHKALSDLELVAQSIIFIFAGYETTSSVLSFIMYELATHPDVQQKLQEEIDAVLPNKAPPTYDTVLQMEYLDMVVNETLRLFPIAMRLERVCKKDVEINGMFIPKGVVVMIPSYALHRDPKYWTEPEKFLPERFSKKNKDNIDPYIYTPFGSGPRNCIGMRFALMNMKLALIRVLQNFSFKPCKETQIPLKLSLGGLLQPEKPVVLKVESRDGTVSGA

CYP2C19 = CYP2C19 (Homo sapiens, UniProt P33261); assay: Inhibition of human CYP2C19 assessed as remaining enzyme activity at 10 uM preincubated for 5 mins followed by Vivid CYP substrate addition measured after 20 mins by fluorescence assay relative to control; type: ADME; conditions: probe Vivid CYP substrate, read-out: Activity
Chain of CYP2C19 (P33261 whole entry): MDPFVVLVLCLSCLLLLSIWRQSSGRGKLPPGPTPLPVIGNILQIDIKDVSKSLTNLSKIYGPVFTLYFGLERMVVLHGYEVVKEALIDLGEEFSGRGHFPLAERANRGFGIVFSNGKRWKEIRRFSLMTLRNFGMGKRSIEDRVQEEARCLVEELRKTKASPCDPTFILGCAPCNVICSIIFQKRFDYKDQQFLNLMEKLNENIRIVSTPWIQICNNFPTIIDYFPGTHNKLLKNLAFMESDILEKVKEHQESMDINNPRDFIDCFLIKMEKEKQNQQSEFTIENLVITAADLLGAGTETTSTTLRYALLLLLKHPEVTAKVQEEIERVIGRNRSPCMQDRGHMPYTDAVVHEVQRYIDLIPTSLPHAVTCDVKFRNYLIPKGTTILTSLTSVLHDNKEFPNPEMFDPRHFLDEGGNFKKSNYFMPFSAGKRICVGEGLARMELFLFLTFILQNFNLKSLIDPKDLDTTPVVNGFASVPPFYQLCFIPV

SMILES | Activity [1] | Activity [2] | viability at 24 h, 5 µM [3] | other results
CCN(Cc1ccccc1)C(=O)CSc1nnc(C)n2c1cc1sccc12 | 63% | 8% | 99% | 
CCN(Cc1ccccc1)C(=O)Cn1nc(C)n2c(cc3sc(C)cc32)c1=O | 45% | 9% | 90% | 
CCc1nnc(SCC(=O)N2CCN(c3ccccc3)CC2)c2cc3sc(C)cc3n12 | 70% | 41% | 99% | activity at 20 min, 10 µM (CYP1A2): 40.1%; activity at 20 min, 10 µM (CYP2C9): 38.8%; IC50 (Translocator protein): 2220 nM; activity at 20 min, 10 µM (CYP2D6): 81.7%; activity at 20 min, 10 µM (CYP3A4): 20.6%; activity at 20 min, 10 µM (CYP2C19): 20.3%
Cc1cc2c(cc3c(SCC(=O)N4CCN(c5ccccc5)CC4)nnc(C)n32)s1 | 69% | -9% | 99% | 
CCc1nnc(SCC(=O)NCc2ccccc2)c2cc3sc(C)cc3n12 | 55% | -3% | 29% | 
C=CCN1C(=O)CN=C(c2ccc(C(C)(C)C)cc2)c2c1sc1c2CCCC1 | 14% |  |  | 
Cc1nnc(SCC(=O)NCc2ccccc2)c2cc3sccc3n12 | 48% | 6% | 73% | 
Cc1cc2c(cc3c(SCC(=O)Nc4ccccc4)nnc(C)n32)s1 | 58% | 19% | 88% | 
Cc1ccc(S(=O)(=O)Nc2ccc3c(c2)sc(=O)n3C)c(C)c1 | 4% |  |  | 
CCc1nnc(SCC(=O)Nc2ccccc2)c2cc3sccc3n12 | 48% | -3% | 91% | 
Cn1c(=O)oc2cc(NS(=O)(=O)Cc3ccco3)ccc21 | 41% | 14% | 103% | 
CCc1nn(CC(=O)N(C)C)c(=O)c2cc3sccc3n12 | 12% | -3% | 98% | 
Cc1ccc2c(c1)C(c1ccccc1)=NCC(=O)N2C | 1% |  |  | 
COc1cc(-c2nnc(SCc3c(F)cccc3Cl)o2)cc(OC)c1OC | 65% | -3% | 94% | 
COC(=O)CN1C(=O)C2CCCCC2Sc2ncccc21 (stereo unspecified) | 0% |  |  | 
C=CCN1C(=O)CN=C(c2ccccc2)c2c1sc(C)c2C | 75% | -2% | 93% | 
Cc1cc2c(cc3c(SCC(=O)NCc4ccccc4)nnc(C)n32)s1 | 35% | -50% | 61% | 
CCc1nnc(SCC(=O)N(CC)Cc2ccccc2)c2cc3sc(C)cc3n12 | 67% | 25% | 82% | 
Cc1noc(C)c1S(=O)(=O)NC(c1ccccc1)c1ccccc1 | 0% |  |  | 
CCc1nn(CC(=O)Nc2ccc(OC)c(OC)c2)c(=O)c2cc3sccc3n12 | 56% | -17% | 40% | 

SMILES | Activity [1] | Activity [2] | viability at 24 h, 5 µM [3] | other results
CCc1nnc(SCC(=O)Nc2ccc(OC)c(OC)c2)c2cc3sccc3n12 | 56% | 14% | 82% | 
Cc1ccc(S(=O)(=O)NCc2cccnc2)c(C)c1 | 0% |  |  | 
COc1ccc(NC(=O)Cn2nc(C)n3c(cc4sc(C)cc43)c2=O)cc1OC | 52% | -8% | 97% | 
CCc1nnc(SCC(=O)N(C)c2ccccc2)c2cc3sc(Cl)cc3n12 | 61% | 22% | 78% | 
C=CCN1C(=O)CN=C(c2cccs2)c2c1sc1c2CCC1 | 38% |  |  | 
COC(=O)C1CCc2ccccc2N1C(=O)c1ccc(OC)cc1 (stereo unspecified) | 38% |  |  | 
Cc1cc2c(cc3c(=O)n(CC(=O)N(C)C)nc(C)n32)s1 | 17% | 0% | 96% | 
CCc1nnc(SCC(=O)Nc2ccc(OC)c(OC)c2)c2cc3sc(C)cc3n12 | 62% | 18% | 91% | activity at 20 min, 10 µM (CYP1A2): 65.5%; activity at 20 min, 10 µM (CYP2C9): 50%; IC50 (Translocator protein): > 10000 nM; activity at 20 min, 10 µM (CYP2D6): 54.2%; activity at 20 min, 10 µM (CYP3A4): 44.7%; activity at 20 min, 10 µM (CYP2C19): 30.9%
CCc1nn(CC(=O)N(CC)Cc2ccccc2)c(=O)c2cc3sccc3n12 | 57% | -11% | 100% | 
O=C(COc1ccc(Cl)cc1)ON=C(c1ccccc1)c1ccccc1 | 0% |  |  | 
CCc1nnc(SCC(=O)N(CC)Cc2ccccc2)c2cc3sccc3n12 | 56% | 1% | 99% | 
CCOC(=O)C1=C(C)N/C(=C/c2ccccc2OCc2ccccc2)C1=O | 22% |  |  | 
CCN(Cc1ccccc1)C(=O)CSc1nnc(C)n2c1cc1sc(C)cc12 | 66% | 26% | 97% | activity at 20 min, 10 µM (CYP1A2): 70.9%; activity at 20 min, 10 µM (CYP2C9): 21.1%; IC50 (Translocator protein): 123 nM; activity at 20 min, 10 µM (CYP2D6): 38.4%; activity at 20 min, 10 µM (CYP3A4): 51.4%; activity at 20 min, 10 µM (CYP2C19): 10.2%
CCc1nnc(SCC(=O)N2CCN(c3ccccc3)CC2)c2cc3sc(Cl)cc3n12 | 50% | -2% | 99% | 
CCCC(=O)n1nc(-c2ccco2)nc1S(=O)(=O)Cc1ccccc1 | 0% |  |  | 
CCc1nn(CC(=O)N2CCN(c3ccccc3)CC2)c(=O)c2cc3sccc3n12 | 56% | 9% | 91% | 
COc1ccc(NC(=O)CSc2nnc(C)n3c2cc2sccc23)cc1OC | 55% | 0% | 99% | 
CCc1nnc(SCC(=O)N2CCN(c3ccccc3)CC2)c2cc3sccc3n12 | 53% | -4% | 68% | 
Cc1nnc(SCC(=O)Nc2ccccc2)c2cc3sccc3n12 | 59% | 5% | 96% | 
Cc1cc2c(cc3c(=O)n(CC(=O)N(C)c4ccccc4)nc(C)n32)s1 | 41% | 17% | 100% | 

SMILES | Activity [1] | Activity [2] | viability at 24 h, 5 µM [3] | other results
COC(=O)CN(c1ccc(C(C)C)cc1)S(=O)(=O)c1ccc(C)cc1 | 67% | -1% | 92% | 
C=CCN1C(=O)CN=C(c2ccccc2C)c2cc(CC)sc21 | 0% |  |  | 
O=C(Cc1coc2ccc3ccccc3c12)NCc1ccco1 | 85% | -3% | 96% | 
CN1C(=O)CN=C(c2ccc(Cl)cc2)c2cc(Cl)ccc21 [RO-54864] | 12% | 9% | 100% | 
O=S(=O)(c1ccccc1Cl)N1CCCC1c1cccs1 (stereo unspecified) | 67% | -61% | 114% | 
Cn1c(SCC(=O)NCc2ccccc2)nnc1-c1cc2ccccc2o1 | 19% |  |  | 
COc1ccccc1C1NC(=S)NC(C)=C1C(=O)OCc1ccccc1 (stereo unspecified) | 56% | 0% | 88% | 
CNC(=O)CN(c1ccc(Br)cc1)S(=O)(=O)c1ccc(C)cc1 | 35% |  |  | 
CCOC(=O)C(C)N1C(=O)CN=C(c2ccc(OC)cc2)c2c1sc1c2CCCC1 (stereo unspecified) | 24% |  |  | 
CCOC(=O)C(C)N1C(=O)CN=C(c2cccc(C)c2)c2c1sc1c2CCCC1 (stereo unspecified) | 0% |  |  | 
CCc1nnc(SCC(=O)NCc2ccccc2)c2cc3sccc3n12 | 50% | -15% | 54% | 
CCN(C(=O)CCl)c1ncc(-c2ccc(OC)cc2)s1 | 0% |  |  | 
Cc1cc2c(cc3c(SCC(=O)N(C)c4ccccc4)nnc(C)n32)s1 | 56% | 33% | 87% | 
Cc1nnc(SCC(=O)N2CCN(c3ccccc3)CC2)c2cc3sccc3n12 | 59% | 0% | 98% | 
CCc1nnc(SCC(=O)Nc2ccccc2)c2cc3sc(Cl)cc3n12 | 66% | 4% | 95% | 
CN1C(=O)CN=C(c2ccccc2)c2cc(Br)ccc21 | 0% |  |  | 
CCc1nnc(SCC(=O)Nc2ccc(OC)c(OC)c2)c2cc3sc(Cl)cc3n12 | 69% | 7% | 94% | 
CCc1nn(CC(=O)N(C)c2ccccc2)c(=O)c2cc3sccc3n12 | 50% | -9% | 93% | 
